Earlier results in patent US9763924B2, “Aminoester derivatives” (CHIESI FARMACEUTICI S.P.A., priority 2014, dated 2017).

Tested on: COPD patients
[1] = patients with severe disease who have frequent exacerbations and mucus hypersecretion

For `O=C(Nc1c(Cl)cncc1Cl)c1ccc(OC(F)F)c(OCC2CC2)c1` [roflumilast], the “reduction of the numbers of neutrophils in sputum” value (COPD patients, oral, given over 4 weeks) is listed as 36%, the “improvement of FEV 1” value [1] is listed as “approximately 50 mL” and the reduction of exacerbation [1] is listed as “about 15%”.
